What was measured:
muskmelon powdery mildew = assay: Resistance to powdery mildew of muskmelon plants sprayed with allantoin aqueous solution and inoculated with spore suspension (greenhouse); assay type: in vivo, Podosphaera xanthii; conditions: for plant morbidity: inoculated 24 h after first spraying
Protocol: Preparation and inoculation of pathogen spore suspension of muskmelon powdery mildew:
Muskmelon leaves with severe powdery mildew were randomly selected from the field, and conidia were transferred to a beaker containing sterile water by a brush and uniformly stirred to obtain the spore suspension of powdery mildew. Spore concentration was measured under an optical microscope by using a blood counting chamber, and the concentration of the spore suspension was adjusted to be 1×10^6spores/mL for later use, which was used for inoculation tests. It was identified that this bacterial suspension was the bacterial suspension of muskmelon powdery mildew.
Muskmelon seedlings were planted in a greenhouse in June. When the muskmelon seedlings grown to the spreading stage, they were divided into a blank group, a pathogen inoculation group, a negative control group and an experimental group. […] The negative control group was sprayed with the sterile water at 5:00 pm to 6:00 pm, spraying was carried out once every three days, and the spraying amount of each time was the same as that of the aqueous solution containing allantoin in the experimental group. 24 hours after the first spraying of the allantoin water solution in the experimental group, the negative control group, the pathogen inoculation group and the experimental group were inoculated with the spore suspension of powdery mildew obtained above after the solution on the leaves was evaporated. After the pathogen inoculation group was infected with powdery mildew, the resistance to powdery mildew of the experimental group and the negative control group was observed (as shown in FIG. 1A-B), and the disease index, morbidity and control efficiency of the experimental group were calculated.
Leaf morphology was graded according to the response of the muskmelon leaves infected with powdery mildew. Grade 0: no infection; grade 1: no obvious infection; grade 2: mild infection; grade 3: moderate infection; grade 4: severe infection; and grade 5: whole-leaf infection. Disease index=sum of disease grade numbers of all leaves of an individual plant/number of leaves of the individual plant×the highest disease grade of the leaves of the individual plant Morbidity=number of infected individual plants/total number of investigated individual plants×100% Control efficiency=number of uninfected individual plants/total number of investigated individual plants×100%
Muskmelon seedlings were planted in a greenhouse in June. When the muskmelon seedlings grown to the three-leaves and one-bud stage, they were divided into a blank group, a pathogen inoculation group, a negative control group and an experimental group. The muskmelon leaves in the experimental group were sprayed with an aqueous solution containing allantoin with the concentration of 1050 mg/L at 5:00 pm to 6:00 pm, spraying was carried out once every three days, and a medicament was uniformly covered on the leaves for each time of spraying. The negative control group was sprayed with the sterile water at 5:00 pm to 6:00 pm, spraying was carried out once every three days, and the spraying amount of each time was the same as that of the aqueous solution containing allantoin in the experimental group. 24 hours after the first spraying of the allantoin water solution in the experimental group, the negative control group, the pathogen inoculation group and the experimental group were inoculated with the spore suspension of powdery mildew obtained above after the solution on the leaves was evaporated. After the pathogen inoculation group was infected with powdery mildew, the resistance to powdery mildew of the experimental group was observed (as shown in FIG. 2A-B), and the disease index, morbidity and control efficiency of the experimental group were calculated.

[1] = system: pathogen of muskmelon gummy stem blight; assay: Plate experiment of inhibitory effect on pathogen of muskmelon gummy stem blight (PDA medium); assay type: cell-based; conditions: allantoin aqueous solution 700 mg/L and 1050 mg/L smeared on PDA plates, 7 days, 28° C.
Protocol: Based on the purpose of study, the inventor designed a plate experiment. Considering that powdery mildew is a living parasitic fungi and can only grow and reproduce on living plants, a PDA medium cannot be used for culturing, so that pathogen of muskmelon gummy stem blight is used for experiment. The specific experiment method is as follows: a PDA medium was prepared and poured into plates; equal amounts of an allantoin aqueous solution with the concentration of 700 mg/L, an allantoin aqueous solution with the concentration of 1050 mg/L and sterile water were respectively smeared on three plates, and then a bacterial cake of the pathogen of muskmelon gummy stem blight was inoculated in the center of each plate; the plates were cultured for 7 days under 28° C., and the growth of the pathogen of muskmelon gummy stem blight in the three plates was observed.

[2] = Example 3: 700 mg/L allantoin aqueous solution sprayed on leaves once every three days, spreading stage
[3] = Example 4: 1050 mg/L allantoin aqueous solution sprayed on leaves once every three days, three-leaves and one-bud stage

## NC(=O)NC1NC(=O)NC1=O (stereo not shown) [allantoin]
Muskmelon powdery mildew; [2]
  control efficiency: 100%
  disease index: 0
  plant morbidity: 0%
Muskmelon powdery mildew; Example 3: 700 mg/L allantoin aqueous solution, spreading stage (FIG. 1A)
  powdery mildew spots on the leaves: no powdery mildew spot is generated on the leaves
Muskmelon powdery mildew; Example 4: 1050 mg/L allantoin aqueous solution sprayed on leaves once every three days, three-leaves and one-bud (seedling) stage
  plant morbidity: 0%
Muskmelon powdery mildew; [3]
  control efficiency: 100%
  disease index: 0
Muskmelon powdery mildew; Example 4: 1050 mg/L allantoin aqueous solution, three-leaves and one-bud stage (FIG. 2)
  powdery mildew spots on the leaves: no powdery mildew spot is generated on the leaves
Muskmelon powdery mildew; aqueous solution containing allantoin sprayed on leaves in the spreading stage or the three-leaves and one-bud stage
  control efficiency (summary statement): ≤ 100%
[1]
  growth of the pathogen of muskmelon gummy stem blight on plate: does not inhibit the growth

From US12075778B2, “Inhibitor for resisting muskmelon powdery mildew as well as preparation method and application thereof” (Northeast Agricultural University, priority 2022, dated 2024)
